# Columns and labels:
# [1] = test system: mice fed with high-fat diet; assay: Weight of mice fed with high-fat diet during drug administration; type: in vivo; conditions: tail vein injection daily, 12 weeks after drug administration onward, FIG. 5
# Source text: Experimental animals: male mice at the age of 6 weeks and feed were provided by the Experimental Animal Center of Nanjing Medical University, license number: SCXK (Su) 2011-0003. The animals are fed in different cages randomly, and drink water freely.
# Experimental drugs: normal diet control group (blank control group); and high-fat diet groups are divided into a normal saline group (model control group), a nano-bubble group, a nano-bubble-curcumin group, a polypeptide nano-bubble group (prepared by step 3) in embodiment 1), a curcumin group and a polypeptide nano-bubble-curcumin group (prepared by step 4) in embodiment 1). […]
# mice fed with high fat = assay: Storage of visceral and subcutaneous adipose of mice fed with high fat; type: in vivo; conditions: for Weight: body weight after 20 weeks
# Experimental: • 1) The obese mice fed with high fat are subjected to drug administration by intravenous injection for 20 weeks according to experimental steps in embodiment 2; • 2) the mice in the various groups are not fed with food for 12 hours, and are weighed accurately after being anaesthetized with 3% pentobarbital sodium at 45 mg/kg by intraperitoneal injection; • 3) the mice are conventionally sterilized and subjected to laparotomy, kidney surrounding adipose tissues, mesenterium surrounding adipose tissues, epididymis surrounding adipose tissues and abdominal subcutaneous adipose tissues are rapidly picked to weigh wet weight (wherein the range of the abdominal subcutaneous adipose tissues is as follows: the abdomen below an costal arch and above a groin, and a midaxillary line is taken as a boundary for two sides); • 4) the weight is calculated according to the following formula: wet weight of abdominal adipose; adipose pad total weight (g)=the kidney surrounding adipose tissues+the epididymis surrounding adipose tissues; and body adipose content=the adipose pad total weight (g)/body weight (g). • 5) The obtained data is subjected to statistical treatment.
# [2] = high-fat diet mice, 20 weeks, n = 10
# [3] = high-fat diet mice, tail vein injection 20 weeks, curcumin 75 mg/kg or nano-bubbles 40 μg/mice/time, n = 10, wet weight
compound,measurement,setting,value
"COc1cc(/C=C/C(=O)CC(=O)/C=C/c2ccc(O)c(OC)c2)ccc1O [Curcumin, curcumin]",Increasing of the weight of the mice compared with the model control group,[1],obviously inhibited
same,Wet weight of the visceral adipose tissues compared with the model control group,mice fed with high fat; Table 6,reduced obviously
same,Total weight of visceral adipose tissues,"mice fed with high fat; Table 6, high-fat diet mice, tail vein injection 20 weeks, n = 10",8.03 ± 0.02 g
same,Body fat mass index compared with the model control group,mice fed with high fat; Table 7,obviously reduced
same,Weight,"mice fed with high fat; Table 7, high-fat diet mice, n = 10",34.92 ± 0.96 g
same,Weight,"mice fed with high fat; Table 8, high-fat diet mice, n = 10",35.72 ± 0.75 g
same,VAT (total weight of visceral adipose tissues),"mice fed with high fat; Table 8, high-fat diet mice, 20 weeks, n = 10",7.24 ± 0.02 g
same,Body fat mass index,"mice fed with high fat; fat pad total weight (g)/weight (g), high-fat diet mice, 20 weeks, n = 10",6.38 ± 0.21 %
same,SCAT (subcutaneous adipose tissue total weight),mice fed with high fat; [2],3.01 ± 0.05 g
same,SCAT/weight,mice fed with high fat; [2],7.02 ± 0.38
same,VAT/SCAT,mice fed with high fat; [2],1.78 ± 0.09
same,Amount of visceral adipose tissues: Epididymis surrounding,mice fed with high fat; [3],1.21 ± 0.18 g
same,Amount of visceral adipose tissues: Kidney surrounding,mice fed with high fat; [3],0.72 ± 0.05 g
same,Amount of visceral adipose tissues: Omentum and mesenterium surrounding,mice fed with high fat; [3],0.59 ± 0.02 g
same,Fat pad total weight,"mice fed with high fat; kidney surrounding + epididymis surrounding adipose tissues, high-fat diet mice, 20 weeks, n = 10",2.34 ± 0.10 g
same,Weight of the subcutaneous adipose compared with the model group,mice fed with high fat; text on Table 8,remarkably reduced
